Laboratory results from patent publication US9173906B2, “Methods and compositions for tissue regeneration” (SMITH & NEPHEW, INC., priority 2002, dated 2015).

Columns and labels:
Experiment in all cases: Mitomycin C growth arrest of fibroblasts (weekly cell counting, colony inspection)
[1] = system: human telomerase immortalized fibroblast line (MDX12); settings: MMC treatment for 5 h
Description: (§1) The rat fibroblast cell line (CRL 1213), the FGF1-transfected rat fibroblast cell line (1175/CRL 1213), the human telomerase immortalized fibroblast line (MDX12), and the primary human fibroblasts (EDX1) were each growth arrested using the following method. Fibroblasts were grown in DMEM+10% FCS, 25 mM Hepes, 1 mM pyruvate, 2 mM L-Gln, 100 U/ml penicillin, 100 μg/ml streptomycin in T75 flasks. […] The cells were then rinsed with PBS and detached with 0.05% trypsin/0.02% EDTA. The remaining cells were plated at densities of 100 to 5000 cells/cm^2 in T25-flasks respectively (10 flasks for each density). These cells were incubated at 37° C. with 2 media changes per week.
(§2) Efficiency of cell growth arrest was measured by weekly counting of cells (using a hemacytometer) cultured in the flasks plated at a density of 5000 cells/cm^2 and by inspection of appearing colonies in the flasks plated at a density of 100 cells/cm^2. Changes in cell morphology were also examined.

[2] = system: FGF1-transfected rat fibroblast cell line (1175/CRL 1213); format: cell-based
Description: as §1, §2

[3] = system: rat fibroblast cell line (CRL 1213); format: cell-based; settings: MMC treatment for 5 h
Description: as §1, §2

[4] = system: primary human fibroblasts (EDX1); settings: MMC treatment for 5 h
Description: as §1, §2

CO[C@@]12[C@H](COC(N)=O)C3=C(C(=O)C(C)=C(N)C3=O)N1C[C@@H]1N[C@@H]12 [mitomycin C]
concentration sufficient to growth arrest [1]: 8 µg/mL | efficacy of concentrations below 1 μg/ml [2]: not efficacious | concentration at which cells were growth arrested ([2]; MMC treatment for 5 h): 1 µg/mL | concentration optimal to growth arrest [3]: 2 µg/mL | concentration sufficient to growth arrest [4]: 8 µg/mL
